From patent publication US20060270631A1, “Methods for the treatment and prevention of angiogenic diseases” (priority 2005, published 2006)

How the values were obtained:
[1] = system: endogenous SK; experiment: Cellular S1P formation assay in HUVECs; type: cell-based, human; settings: read-out: drug concentration that decreases S1P formation by 50%
Description: FIG. 2. Inhibition of S1P production in HUVECs by SK inhibitors. […] After 15 minutes, cells were lysed and extracted with chloroform: methanol, and the amounts of [^3H]sphingosine in the organic phase and [^3H]S1P in the aqueous phase were then determined. Values represent the mean±sd SK activity.
Cellular S1P formation assay. Cells were grown to confluency in 24-well tissue culture plates and serum-starved for 24 hours as described above. Cells were then treated with 1% DMSO (as the drug vehicle), 20 μM dimethylsphingosine, or the indicated concentration of an SK inhibitor for 4 hours. The cells were then incubated with [^3H]sphingosine for 15 minutes, and the formation of [^3H]S1P was measured as previously described (French et al., Cancer Res 63: 5962 (2003)). […] [^3 H]Sphingosine was then added for 15 minutes, and its conversion to [^3H]S1P was measured as indicated above.
(§1) A cell-based assay in which the phosphorylation of exogenously added [^3H]sphingosine to [^3H]S1P by endogenous SK can be quantified (French et al., Cancer Res 63: 5962 (2003)) was used to evaluate the effects of test compounds on the activity of SK in intact cells. […] Similarly, the enzymatic activity of SK in bovine RECs, and its sensitivity to SK inhibitors were assessed. […]

[2] = system: human RECs; experiment: Cytotoxicity assay (sulforhodamine) toward human RECs; type: cell-based; settings: 12 or 14 hours, serum-starved human RECs
Description: FIG. 4. Toxicity of Compound II toward HRECs. Human RECs were serum-starved for 24 hours and then left untreated for 12 hours (▪) or incubated with 50 ng/mL VEGF (▴) for 14 hours in the presence of the indicated concentration of Compound II. These protocols were chosen to exactly match conditions in SK activity and proliferation experiments described below. After incubation, the percentages of cells that survived the treatment were determined. Values represent the mean i SD cell survival in triplicate samples in a typical experiment.
Cytotoxicity assays. Cells were grown to confluence in 96-well tissue culture plates and serum-starved for 24 hours as described above. Cells were then treated with varying concentrations of Compound II for 12 hours (to parallel the SK activity assays described above) or with varying concentrations of Compound II and 50 ng/mL of VEGF for 14 hours (to parallel the proliferation assays described below). Cell survival was determined using the sulforhodamine assay (Skehan et al., J Natl Cancer Inst 82: 1107 (1990)).
Since Compound II was the most efficacious inhibitor of SK in the RECs, this compound was used to characterize the biological effects of inhibiting SK in these cells. It was first necessary to determine the toxic effects of this compound toward cultures of RECs under conditions identical to subsequent signal studies. […]

[3] = system: endogenous SK; experiment: Cellular S1P formation assay in HFLS-RA cells; type: cell-based, human; settings: read-out: drug concentration that decreases S1P formation by 50%
Description: Cellular S1P formation assay. Cells were grown to confluency in 24-well tissue culture plates and serum-starved for 24 hours as described above. Cells were then treated with 1% DMSO (as the drug vehicle), 20 μM dimethylsphingosine, or the indicated concentration of an SK inhibitor for 4 hours. The cells were then incubated with [^3H]sphingosine for 15 minutes, and the formation of [^3H]S1P was measured as previously described (French et al., Cancer Res 63: 5962 (2003)). In some assays, the cells were serum-starved for 24 hours and then treated with VEGF (50 ng/mL) alone or in the presence of an SK inhibitor for an additional 12 hours. [^3 H]Sphingosine was then added for 15 minutes, and its conversion to [^3H]S1P was measured as indicated above.
as §1, with “cells. In this assay, cells are incubated with [^3 H]sphingosine for an appropriate period of time, and then [^3H]sphingosine and [^3H]S1P (formed by endogenous SK activity) are separated by extraction and levels of both species are determined by scintillation counting.” for “cells.”

[4] = system: VEGF-induced vascular permeability; experiment: VEGF-induced vascular leakage (Miles assay) in nude mice; type: in vivo, mouse; settings: 100 mg/kg intraperitoneal, FIG. 7A
[5] = system: E-selectin and VCAM-1; experiment: Western analysis of TNFα-induced E-selectin and VCAM-1 in human RECs; type: cell-based; settings: TNFα 100 ng/mL, 6 hours
Description: Western Blotting. Protein concentrations were determined using the fluorescamine assay (Bohlen et al., Arch Biochem Biophys 155: 213 (1973)) with bovine serum albumin as the standard. Samples were normalized for equal amounts of protein per lane (100 μg), separated by sodium dodecylsulfate-polyacrylamide gel electrophoresis and electrotransferred to nitrocellulose membranes. For SK analyses, membranes were blocked with 5% nonfat milk in Tris-buffered saline with Tween 20 and probed with an anti-SK rabbit polyclonal antibody at a 1:50 dilution, washed and incubated with […] antibodies conjugated to horseradish peroxidase (1 hr in 3% nonfat milk). The blots were then washed 4 times for 5 minutes at room temperature, developed with SuperSignal development reagents (Pierce Biotechnology, Inc., Rockford, Ill.) and exposed to Kodak XAR film. […]
Western analyses were conducted to evaluate the effects of Compound II on signaling proteins known to be regulated in endothelial cells by VEGF or TNFα. […] Cell lysates from cells treated with VEGF for 15 minutes were then analyzed for levels of phosphorylated ERK1/2 as a measure of signaling through the Ras-mediated proliferation pathway. Samples from cells treated with TNFα were analyzed for activation of NFκB, i.e. phosphoNFκB, and the down-stream proteins, cyclooxygenase-2 (Cox-2), E-selectin and VCAM-1. […]

**Q.** `Oc1ccc(Nc2nc(-c3ccc(Cl)cc3)cs2)cc1` [Compound II] was tested. Which IC50 [1] did it give?
**A.** 200 nM

**Q.** What about the cell kill ([2]; concentrations up to approximately 16 μM) of the same compound?
**A.** < 10%

**Q.** And the cell kill ([2]; concentrations up to at least 65 μM)?
**A.** less than 25%

**Q.** What about the IC50 [3] of the same compound?
**A.** 190 nM

**Q.** And the “inhibition of the in vivo vascular leakage response to VEGF” value [4]?
**A.** more than 80%

**Q.** What about the “TNFα-induced up-regulation of E-selectin expression” value [5] of the same compound?
**A.** completely blocked

**Q.** What about the “TNFα-induced up-regulation of VCAM-1 expression” value [5] of the same compound?
**A.** completely blocked
